Reference: BindingDB's records for patent US12202835 (Beijing Scitech-Mq Pharmaceuticals, 2025)

Assays:
Experiment in all cases: LANCE TR-FRET Assay
[1] = target: High affinity nerve growth factor receptor (Homo sapiens, UniProt P04629)
Method: TRKA Kinase: The assay of small molecular compounds for inhibiting the activity of TRKA kinase is based on the LANCE TR-FRET technology of Perkin Elmer Inc., and the assay method is as follows:1. […] 2.5 μL of the gradient-diluted compounds were taken with a transfer pipette to a 384-well plate.3. Addition of enzyme: 5 μL of 2×TRKA kinase solution (with a concentration of 2 nM) was taken with a transfer pipette to the corresponding reaction well of the 384-well plate, mixed well and pre-reacted at room temperature for 5 minutes.4. 2.5 μL 4× Ultra ULight-labeled TK Peptide (with a concentration of 400 nM)/ATP (with a concentration of 40 μM) mixture was taken with a transfer pipette to the corresponding reaction well of the 384-well plate.5. Negative control: 2.5 μL/well 4× substrate/ATP mixture and 7.5 μL 1× Kinase Assay Buffer were added to the wells of the 384-well plate.Positive control: 2.5 μL/well 4× substrate/ATP mixture, 2.5 μL/well 1× Kinase Assay Buffer containing 4% DMSO, and 5 μL/well 2×TRKA kinase solution were added to the 384-well plate. The final concentration of DMSO in the reaction system was 1%.6. The mixture was mixed well and then centrifuged and reacted at room temperature in dark for 60 min.7. Termination of the enzymatic reaction: 5 μL of 4× stop solution was taken with a transfer pipette to the wells of the 384-well plate, mixed and then centrifuged, and reacted at room temperature for 5 min.8. Development of the reaction: 5 μL of 4× detection solution was taken with a transfer pipette to the wells of the 384-well plate for color development, and the mixture was mixed and then centrifuged and reacted at room temperature for 60 min.9. The 384-well plate was placed into the Envision plate reader and the signal was detected using the appropriate program.10.

[2] = target: Hepatocyte growth factor receptor (Homo sapiens, UniProt P08581)
Method: c-MET Kinase: The assay is based on the LANCE TR-FRET technology of Perkin Elmer Inc., and the assay method is as follows:1. Dilution of compounds: a total of 11 concentrations were obtained using a 3-fold gradient dilution from the highest concentration of 2500 nM (the maximum final concentration of the drug used in this assay was 2500 nM, and the minimum final concentration was 0.042 nM).2. 2.5 μL of the gradient-diluted compounds were taken with a transfer pipette to a 384-well plate.3. Addition of enzyme: 5 μL of 2×c-MET kinase solution (with a concentration of 2 nM) was taken with a transfer pipette to the corresponding reaction well of the 384-well plate, mixed well and pre-reacted at room temperature for 5 minutes.4. 2.5 μL 4× Ultra ULight™-JAK-1 (Tyr1023) Peptide (with a concentration of 400 nM)/ATP (with a concentration of 40 μM) mixture was taken with a transfer pipette to the corresponding reaction well of the 384-well plate.5. Negative control: 2.5 μL/well 4× substrate/ATP mixture and 7.5 μL 1× Kinase Assay Buffer were added to the wells of the 384-well plate.6. Positive control: 2.5 μL/well 4× substrate/ATP mixture, 2.5 μL/well 1× Kinase Assay Buffer containing 16% DMSO, and 5 μL/well 2× c-MET kinase solution were added to the 384-well plate. The final concentration of DMSO in the reaction system was 4%.7. The mixture was mixed well and then centrifuged and reacted at room temperature in dark for 60 min.8. Termination of the enzymatic reaction: 5 μL of 4× stop solution was taken with a transfer pipette to the wells of the 384-well plate, mixed and then centrifuged, and reacted at room temperature for 5 min.9. Development of the reaction: 5 μL of 4× detection solution was taken with a transfer pipette to the wells of the 384-well plate for color development, and the mixture was mixed and then centrifuged and reacted at room temperature for 60 min.10. The 384-well plate was placed into the Envision plate reader and the signal was detected using the appropriate program.11. Analysis and processing of the raw data:12. […]

[3] = target: T1, Tyrosine-protein kinase Mer (Homo sapiens, UniProt Q12866)
T1 sequence (Q12866 whole entry): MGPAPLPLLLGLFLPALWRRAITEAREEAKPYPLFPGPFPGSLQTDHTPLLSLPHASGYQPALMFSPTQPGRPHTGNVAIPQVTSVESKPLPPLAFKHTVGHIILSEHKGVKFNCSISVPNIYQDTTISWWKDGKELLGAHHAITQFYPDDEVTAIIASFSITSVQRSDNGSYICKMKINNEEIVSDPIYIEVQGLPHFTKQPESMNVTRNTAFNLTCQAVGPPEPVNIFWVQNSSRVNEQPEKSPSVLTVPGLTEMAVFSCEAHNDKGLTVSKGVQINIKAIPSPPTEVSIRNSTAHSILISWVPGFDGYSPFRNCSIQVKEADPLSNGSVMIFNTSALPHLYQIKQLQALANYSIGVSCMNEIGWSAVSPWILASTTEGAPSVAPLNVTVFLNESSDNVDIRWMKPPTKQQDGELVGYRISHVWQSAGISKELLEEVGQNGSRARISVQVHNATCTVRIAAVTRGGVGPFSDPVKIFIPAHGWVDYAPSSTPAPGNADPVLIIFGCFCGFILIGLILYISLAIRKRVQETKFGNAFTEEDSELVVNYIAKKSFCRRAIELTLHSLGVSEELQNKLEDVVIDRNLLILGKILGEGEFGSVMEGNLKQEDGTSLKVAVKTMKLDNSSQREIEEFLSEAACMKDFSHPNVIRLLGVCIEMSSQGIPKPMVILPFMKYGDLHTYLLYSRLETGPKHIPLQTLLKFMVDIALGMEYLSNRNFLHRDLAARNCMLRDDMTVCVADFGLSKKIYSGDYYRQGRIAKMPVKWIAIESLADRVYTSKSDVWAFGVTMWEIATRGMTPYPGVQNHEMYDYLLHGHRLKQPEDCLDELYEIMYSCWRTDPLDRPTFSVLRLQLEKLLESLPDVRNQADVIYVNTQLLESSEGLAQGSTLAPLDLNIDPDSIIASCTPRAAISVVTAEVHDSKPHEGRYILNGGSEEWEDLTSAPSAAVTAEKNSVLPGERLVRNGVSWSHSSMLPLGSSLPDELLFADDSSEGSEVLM
Method: MER Kinase: The assay of small molecular compounds for inhibiting the activity of MER kinase is based on the LANCE TR-FRET technology of Perkin Elmer Inc., and the assay method is as follows:1. Dilution of compounds: a total of 11 concentrations were obtained using a 3-fold gradient dilution from the highest concentration of 2500 nM (the maximum final concentration of the drug used in this assay was 2500 nM, and the minimum final concentration was 0.042 nM).2. 2.5 μL of the gradient-diluted compounds were taken with a transfer pipette to a 384-well plate.3. Addition of enzyme: 5 μL of 2×MER kinase solution (with a concentration of 1 nM) was taken with a transfer pipette to the corresponding reaction well of the 384-well plate, mixed well and pre-reacted at room temperature for 5 minutes.4. 2.5 μL 4× ULight-labeled Ploy GT (with a concentration of 200 nM)/ATP (with a concentration of 20 μM) mixture was taken with a transfer pipette to the corresponding reaction well of the 384-well plate.5. Negative control: 2.5 μL/well 4× substrate/ATP mixture and 7.5 μL 1× Kinase Assay Buffer were added to the wells of the 384-well plate.Positive control: 2.5 μL/well 4× substrate/ATP mixture, 2.5 μL/well 1× Kinase Assay Buffer containing 4% DMSO, and 5 μL/well 2×MER kinase solution were added to the 384-well plate. The final concentration of DMSO in the reaction system was 1%.6. The mixture was mixed well and then centrifuged and reacted at room temperature in dark for 60 min.7. Termination of the enzymatic reaction: 5 μL of 4× stop solution was taken with a transfer pipette to the wells of the 384-well plate, mixed and then centrifuged, and reacted at room temperature for 5 min.8. Development of the reaction: 5 μL of 4× detection solution was taken with a transfer pipette to the wells of the 384-well plate for color development, and the mixture was mixed and then centrifuged and reacted at room temperature for 60 min.9. The 384-well plate was placed into the Envision plate reader and the signal was detected using the appropriate program.10. Analysis and processing of the raw data:The drug concentrations and the corresponding inhibition rates were input into GraphPad Prism5 for calculation, and the inhibition rate of the compounds were calculated as follows: inhibition rate (%)=(reading of positive well−reading of experimental well)/(reading of positive control well−reading of negative control well)×100%.

[4] = target: Vascular endothelial growth factor receptor 2 (Homo sapiens, UniProt P35968)
Method: VEGFR-2 Kinase: The assay is based on the LANCE TR-FRET technology of Perkin Elmer Inc., and the assay method is as follows:1. Dilution of compounds: a total of 11 concentrations were obtained using a 3-fold gradient dilution from the highest concentration of 2500 nM (the maximum final concentration of the drug used in this assay was 2500 nM, and the minimum final concentration was 0.042 nM).2. 2.5 μL of the gradient-diluted compounds were taken with a transfer pipette to a 384-well plate.3. Addition of enzyme: 5 μL of 2×VEGFR2 kinase solution (with a concentration of 0.5 nM) was taken with a transfer pipette to the corresponding reaction well of the 384-well plate, mixed well and pre-reacted at room temperature for 30 minutes.4. 2.5 μL 4× Ultra ULight™-JAK-1 (Tyr1023) Peptide (with a concentration of 200 nM)/ATP (with a concentration of 40 μM) mixture was taken with a transfer pipette to the corresponding reaction well of the 384-well plate.5. Negative control: 2.5 μL/well 4× substrate/ATP mixture and 7.5 μL 1× Kinase Assay Buffer were added to the wells of the 384-well plate.6. Positive control: 2.5 μL/well 4× substrate/ATP mixture, 2.5 μL/well 1× Kinase Assay Buffer containing 16% DMSO, and 5 μL/well 2×VEGFR-2 kinase solution were added to the 384-well plate. […] The 384-well plate was placed into the Envision plate reader and the signal was detected using the appropriate program.11. […]

Hepatocyte growth factor receptor, sequence (P08581 whole entry): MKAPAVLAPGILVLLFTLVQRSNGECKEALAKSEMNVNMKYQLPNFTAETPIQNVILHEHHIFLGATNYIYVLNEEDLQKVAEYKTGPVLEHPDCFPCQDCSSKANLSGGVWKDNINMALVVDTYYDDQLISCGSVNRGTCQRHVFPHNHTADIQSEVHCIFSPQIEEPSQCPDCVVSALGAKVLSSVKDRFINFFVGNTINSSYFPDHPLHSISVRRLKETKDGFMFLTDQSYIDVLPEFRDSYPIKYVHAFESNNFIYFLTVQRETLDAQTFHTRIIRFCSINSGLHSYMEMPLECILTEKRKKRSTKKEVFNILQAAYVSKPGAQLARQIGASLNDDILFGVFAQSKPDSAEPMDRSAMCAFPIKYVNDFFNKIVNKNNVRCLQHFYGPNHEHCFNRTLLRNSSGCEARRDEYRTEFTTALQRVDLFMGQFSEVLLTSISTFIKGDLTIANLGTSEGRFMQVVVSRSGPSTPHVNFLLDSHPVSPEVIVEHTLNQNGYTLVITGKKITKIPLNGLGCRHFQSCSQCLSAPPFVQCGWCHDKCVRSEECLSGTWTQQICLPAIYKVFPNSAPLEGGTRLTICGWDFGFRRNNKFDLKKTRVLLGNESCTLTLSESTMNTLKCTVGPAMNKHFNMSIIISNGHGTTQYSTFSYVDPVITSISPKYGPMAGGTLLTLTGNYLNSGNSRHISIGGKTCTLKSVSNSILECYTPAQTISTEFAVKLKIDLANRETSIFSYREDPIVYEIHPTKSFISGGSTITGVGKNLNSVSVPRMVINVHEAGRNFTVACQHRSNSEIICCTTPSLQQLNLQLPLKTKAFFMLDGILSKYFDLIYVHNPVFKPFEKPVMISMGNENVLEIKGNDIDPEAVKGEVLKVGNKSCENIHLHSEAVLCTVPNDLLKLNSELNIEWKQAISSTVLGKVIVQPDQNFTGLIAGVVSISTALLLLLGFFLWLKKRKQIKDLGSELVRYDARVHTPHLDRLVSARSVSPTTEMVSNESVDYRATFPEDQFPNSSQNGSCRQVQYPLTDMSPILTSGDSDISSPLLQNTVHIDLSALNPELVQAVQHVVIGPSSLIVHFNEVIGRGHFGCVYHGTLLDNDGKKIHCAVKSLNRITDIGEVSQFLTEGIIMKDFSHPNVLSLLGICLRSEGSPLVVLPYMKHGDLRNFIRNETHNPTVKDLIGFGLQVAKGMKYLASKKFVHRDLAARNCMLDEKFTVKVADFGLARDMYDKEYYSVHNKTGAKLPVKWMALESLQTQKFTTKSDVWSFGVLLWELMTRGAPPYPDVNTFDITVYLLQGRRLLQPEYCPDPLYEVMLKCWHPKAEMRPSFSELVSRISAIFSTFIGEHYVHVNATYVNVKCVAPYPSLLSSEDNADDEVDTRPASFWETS
High affinity nerve growth factor receptor, sequence (P04629 whole entry): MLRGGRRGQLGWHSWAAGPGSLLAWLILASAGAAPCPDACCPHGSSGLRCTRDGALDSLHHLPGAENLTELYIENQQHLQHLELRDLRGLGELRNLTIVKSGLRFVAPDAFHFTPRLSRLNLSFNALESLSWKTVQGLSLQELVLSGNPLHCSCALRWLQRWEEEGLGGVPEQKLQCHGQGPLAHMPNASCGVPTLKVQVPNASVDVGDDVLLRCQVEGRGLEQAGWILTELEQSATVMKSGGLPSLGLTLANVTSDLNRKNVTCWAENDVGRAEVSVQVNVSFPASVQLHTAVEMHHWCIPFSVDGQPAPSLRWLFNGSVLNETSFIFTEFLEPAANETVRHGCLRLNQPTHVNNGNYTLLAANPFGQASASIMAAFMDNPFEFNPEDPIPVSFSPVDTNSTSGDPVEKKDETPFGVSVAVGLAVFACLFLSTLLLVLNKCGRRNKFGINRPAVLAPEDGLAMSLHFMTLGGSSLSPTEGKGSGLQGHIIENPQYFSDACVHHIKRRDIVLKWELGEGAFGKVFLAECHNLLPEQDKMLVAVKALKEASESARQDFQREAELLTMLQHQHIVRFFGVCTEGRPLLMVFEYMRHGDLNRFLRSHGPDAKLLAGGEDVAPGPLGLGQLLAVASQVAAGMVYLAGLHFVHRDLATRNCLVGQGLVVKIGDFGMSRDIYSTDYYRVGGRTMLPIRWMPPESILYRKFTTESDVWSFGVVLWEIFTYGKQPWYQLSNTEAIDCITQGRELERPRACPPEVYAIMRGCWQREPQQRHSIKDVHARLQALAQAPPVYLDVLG
Vascular endothelial growth factor receptor 2, sequence (P35968 whole entry): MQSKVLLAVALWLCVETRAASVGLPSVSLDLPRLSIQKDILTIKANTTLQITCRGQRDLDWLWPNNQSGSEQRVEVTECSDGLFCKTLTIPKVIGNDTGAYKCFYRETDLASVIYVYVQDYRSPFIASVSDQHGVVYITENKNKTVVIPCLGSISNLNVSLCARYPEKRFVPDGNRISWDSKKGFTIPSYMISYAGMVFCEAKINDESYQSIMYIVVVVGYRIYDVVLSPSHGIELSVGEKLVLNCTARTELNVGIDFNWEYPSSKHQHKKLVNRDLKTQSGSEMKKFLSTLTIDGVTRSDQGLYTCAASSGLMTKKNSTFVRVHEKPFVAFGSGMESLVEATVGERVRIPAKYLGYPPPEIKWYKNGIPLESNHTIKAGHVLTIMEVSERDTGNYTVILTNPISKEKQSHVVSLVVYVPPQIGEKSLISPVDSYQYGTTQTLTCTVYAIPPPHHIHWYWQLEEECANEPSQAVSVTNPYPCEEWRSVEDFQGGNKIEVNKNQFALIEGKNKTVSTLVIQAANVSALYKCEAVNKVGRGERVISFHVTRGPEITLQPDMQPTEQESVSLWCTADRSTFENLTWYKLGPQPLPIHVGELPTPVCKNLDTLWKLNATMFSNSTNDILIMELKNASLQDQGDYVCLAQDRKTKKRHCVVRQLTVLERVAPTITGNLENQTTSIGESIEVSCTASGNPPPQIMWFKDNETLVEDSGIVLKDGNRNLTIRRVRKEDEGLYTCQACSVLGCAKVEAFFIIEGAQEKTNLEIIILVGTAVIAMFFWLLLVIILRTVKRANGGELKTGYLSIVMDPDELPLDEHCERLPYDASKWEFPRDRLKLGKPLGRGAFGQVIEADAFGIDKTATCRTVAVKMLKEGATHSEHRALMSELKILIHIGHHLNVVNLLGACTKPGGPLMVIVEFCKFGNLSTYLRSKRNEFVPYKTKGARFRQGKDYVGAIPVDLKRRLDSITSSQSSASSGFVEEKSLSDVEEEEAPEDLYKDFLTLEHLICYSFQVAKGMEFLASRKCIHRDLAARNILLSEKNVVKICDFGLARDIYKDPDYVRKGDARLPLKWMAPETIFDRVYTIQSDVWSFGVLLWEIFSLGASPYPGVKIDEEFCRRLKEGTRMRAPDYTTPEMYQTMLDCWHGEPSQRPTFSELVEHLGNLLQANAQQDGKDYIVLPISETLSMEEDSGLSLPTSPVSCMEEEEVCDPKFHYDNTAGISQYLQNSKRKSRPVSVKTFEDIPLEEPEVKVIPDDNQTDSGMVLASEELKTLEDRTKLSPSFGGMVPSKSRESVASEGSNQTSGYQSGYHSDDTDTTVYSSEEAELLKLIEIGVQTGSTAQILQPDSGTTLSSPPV

| IC50 [1] | IC50 [2] | IC50 [3] | IC50 [4] | Structure (SMILES) |
| --- | --- | --- | --- | --- |
| < 50 nM | < 50 nM | < 50 nM | – | CN(C)CCCOc1cc2nccc(Oc3ccc(NC(=O)c4cn(C)c(=O)n(-c5ccc(F)cc5)c4=O)cc3F)c2c2c1OCCO2 [US12202835, Example 86] |
| < 50 nM | < 50 nM | < 50 nM | < 50 nM | CCOc1ccn(-c2ccc(F)cc2)c(=O)c1C(=O)Nc1ccc(Oc2ccnc3cc(OCCCN(C)C)c4c(c23)OCCO4)c(F)c1 [US12202835, Example 61] |
| < 50 nM | – | < 50 nM | – | CC(C)n1cc(C(=O)Nc2ccc(Oc3ccnc4cc(OCCCCCCN(C)C)c5c(c34)OCCO5)c(F)c2)c(=O)n(-c2ccc(F)cc2)c1=O [US12202835, Example 85] |
| < 50 nM | < 50 nM | < 50 nM | < 50 nM | CCOc1ccn(-c2ccc(F)cc2)c(=O)c1C(=O)Nc1ccc(Oc2ccnc3cc(OCCCCCCN(C)C)c4c(c23)OCCO4)c(F)c1 [US12202835, Example 60] |
